Measured values: US20020058683A1, “Oral combination of lufenuron and nitenpyram against fleas” (priority 1998, published 2002)

Columns and labels:
[1] = tested on: Cat flea Ctenocephalides felis; assay: Example B1: activity against fleas on dogs in a contaminated environment, oral tablets; assay type: in vivo
Text: Comparison Between the Activity of Lufenuron Alone and the Combination of Nitenpyran and Lufenuron Against Dog Fleas in a Contaminated Environment Corresponding to Actual Conditions.
In the study, conditions existing in the household were simulated. To this end, 4 isolated and clinically clean rooms were used. They contained a sleeping area laid out with straw and a small run to the outside. The rooms were subjected to natural light conditions. […] Subsequently, each group of dogs underwent different treatment.
Control group 1 was given no active ingredient, but only a placebo and served as the reference group. Group 2 was given lufenuron in a monthly dosage in accordance with the instructions on the packet and once a week was given a placebo. Group 3 was given lufenuron in a monthly dosage in accordance with the instructions on the packet, and once a week was additionally given nitenpyram for a period of 6 weeks. Group 4 was given lufenuron in a monthly dosage in accordance with the instructions on the packet, and twice a week was additionally given nitenpyram for a period of 6 weeks.
In all four groups, the flea population was determined by counting them twice weekly before the first treatment and once weekly during treatment.
The activity of the test substances was determined under simulated household conditions in accordance with the following formula: [formula]

fleas = conditions: in vitro test, cited from earlier work
[2] = tested on: fleas present on the cats; conditions: cited from earlier work

SMILES	Activity (% relative to control) ([1]; days 0-28 after first treatment, monthly lufenuron only (Group 2)) [%]	Activity (% relative to control) ([1]; days 29-56, monthly lufenuron only (Group 2)) [%]	Activity (% relative to control) ([1]; days 57-84, monthly lufenuron only (Group 2)) [%]	Activity (% relative to control) ([1]; days 85-112, monthly lufenuron only (Group 2)) [%]	time until activity achieved a satisfactory level for practical usage ([1]; group 2, treated solely with lufenuron)	activity (fleas; after 24 hours) [%]	time to first, substantial activity (fleas; after feeding contaminated blood to fleas) [min]	activity against the fleas present on the cats ([2]; 6 hours after oral administration to cats) [%]	activity against fleas ([2]; cats, oral, on the second day after renewed infestation) [%]	time within which all the fleas except one died ([1]; after the first administration of nitenpyram) [days]
O=C(NC(=O)c1c(F)cccc1F)Nc1cc(Cl)c(OC(F)(F)C(F)C(F)(F)F)cc1Cl (racemic) [lufenuron, (R,S)-1-[2,5-dichloro-4-(1,1,2,2,3,3,3-hexafluoropropoxy)-phenyl]-3-(2,6-difluorobenzoyl)urea]	25.4	78.6	72.1	94.3	ca. 84 days	–	–	–	–	–
CCN(Cc1ccc(Cl)nc1)/C(=C/[N+](=O)[O-])NC [nitenpyram, (E)-N-(6-chloro-pyridin-3-ylmethyl)-N-ethyl-N′-methyl-2-nitrovinylidenediamine]	–	–	–	–	–	100	30	60	55	16 to 24
